Holding throughout (assay type): biochemical
One assay deals with T1, FGFR3 (Homo sapiens, UniProt P22607).
T1 construct: purchased Eurofins (Fremont, United States)
Put plainly: Kinase inhibition assay (ELISA). Particulars: mean ± SD.

Another assay deals with T2, BTK(R28H)(h) (Homo sapiens, UniProt Q06187, R28H).
T2 construct: purchased Eurofins (KinaseProfiler)
Nature of the assay: Eurofins kinase panel. Particulars: read-out: Inhibition rate (%).

A further assay addresses T3, GRK2(h) (Homo sapiens, UniProt P25098).
T3 construct: purchased Eurofins (KinaseProfiler)
T3 sequence (P25098 1-689): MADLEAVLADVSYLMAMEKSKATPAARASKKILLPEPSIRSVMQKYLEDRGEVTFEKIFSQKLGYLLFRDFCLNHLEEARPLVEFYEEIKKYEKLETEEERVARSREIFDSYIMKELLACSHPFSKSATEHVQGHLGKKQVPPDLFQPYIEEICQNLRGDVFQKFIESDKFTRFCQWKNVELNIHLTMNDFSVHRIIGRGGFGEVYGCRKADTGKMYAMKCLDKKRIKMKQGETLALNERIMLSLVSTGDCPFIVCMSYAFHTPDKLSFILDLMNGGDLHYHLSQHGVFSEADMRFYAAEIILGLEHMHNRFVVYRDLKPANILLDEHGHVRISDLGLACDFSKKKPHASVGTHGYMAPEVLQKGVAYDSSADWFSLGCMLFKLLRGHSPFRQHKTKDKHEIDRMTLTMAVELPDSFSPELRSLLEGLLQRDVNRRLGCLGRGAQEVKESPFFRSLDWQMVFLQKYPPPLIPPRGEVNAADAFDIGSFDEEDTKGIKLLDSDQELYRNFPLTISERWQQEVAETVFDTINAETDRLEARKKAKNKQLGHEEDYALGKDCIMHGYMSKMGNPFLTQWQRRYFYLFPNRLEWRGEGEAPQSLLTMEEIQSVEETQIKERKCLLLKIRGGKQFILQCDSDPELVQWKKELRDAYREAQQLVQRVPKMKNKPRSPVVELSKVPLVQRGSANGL
Put plainly: Eurofins kinase panel. The settings on record: read-out: Inhibition rate (%).

A further assay has as its target T4, PAK1(h) (Homo sapiens, UniProt Q13153).
T4 construct: purchased Eurofins (KinaseProfiler)
Put plainly: Eurofins kinase panel. Particulars: read-out: Inhibition rate (%).

For a further assay, the target named is T5, PKCμ(h) (Homo sapiens, UniProt Q15139).
T5 construct: purchased Eurofins (KinaseProfiler)
T5 sequence (Q15139 1-912): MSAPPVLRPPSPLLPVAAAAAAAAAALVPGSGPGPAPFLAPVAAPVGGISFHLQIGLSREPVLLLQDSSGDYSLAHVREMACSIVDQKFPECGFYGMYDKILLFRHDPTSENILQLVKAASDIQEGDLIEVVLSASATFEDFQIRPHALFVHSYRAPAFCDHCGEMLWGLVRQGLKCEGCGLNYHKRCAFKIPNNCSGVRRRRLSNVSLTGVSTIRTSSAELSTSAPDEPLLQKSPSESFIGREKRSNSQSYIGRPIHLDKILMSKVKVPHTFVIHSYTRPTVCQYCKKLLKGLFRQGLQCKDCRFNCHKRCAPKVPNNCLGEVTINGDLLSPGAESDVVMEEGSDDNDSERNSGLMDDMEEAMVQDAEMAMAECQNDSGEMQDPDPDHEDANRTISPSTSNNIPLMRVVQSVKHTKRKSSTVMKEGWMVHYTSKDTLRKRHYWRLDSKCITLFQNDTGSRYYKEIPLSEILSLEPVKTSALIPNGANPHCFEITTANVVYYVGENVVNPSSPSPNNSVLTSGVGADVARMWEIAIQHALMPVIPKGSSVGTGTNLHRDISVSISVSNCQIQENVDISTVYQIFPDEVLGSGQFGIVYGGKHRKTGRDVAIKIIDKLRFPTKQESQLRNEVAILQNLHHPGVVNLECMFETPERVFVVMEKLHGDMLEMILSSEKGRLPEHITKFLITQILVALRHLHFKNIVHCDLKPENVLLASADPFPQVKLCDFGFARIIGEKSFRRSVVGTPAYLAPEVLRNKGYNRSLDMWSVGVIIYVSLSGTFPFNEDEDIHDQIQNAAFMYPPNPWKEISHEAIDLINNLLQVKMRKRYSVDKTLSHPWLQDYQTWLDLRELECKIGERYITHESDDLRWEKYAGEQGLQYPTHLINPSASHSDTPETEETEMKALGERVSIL
Put plainly: Eurofins kinase panel. The settings on record: read-out: Inhibition rate (%).

In a further assay the target is T6, SAPK2a(T106M)(h) (Homo sapiens, UniProt Q16539, T106M).
T6 construct: purchased Eurofins (KinaseProfiler)
Put plainly: Eurofins kinase panel. The settings on record: read-out: Inhibition rate (%).

A further assay deals with T7, SNRK(h) (Homo sapiens, UniProt Q9NRH2).
T7 construct: purchased Eurofins (KinaseProfiler)
T7 sequence (Q9NRH2 1-765): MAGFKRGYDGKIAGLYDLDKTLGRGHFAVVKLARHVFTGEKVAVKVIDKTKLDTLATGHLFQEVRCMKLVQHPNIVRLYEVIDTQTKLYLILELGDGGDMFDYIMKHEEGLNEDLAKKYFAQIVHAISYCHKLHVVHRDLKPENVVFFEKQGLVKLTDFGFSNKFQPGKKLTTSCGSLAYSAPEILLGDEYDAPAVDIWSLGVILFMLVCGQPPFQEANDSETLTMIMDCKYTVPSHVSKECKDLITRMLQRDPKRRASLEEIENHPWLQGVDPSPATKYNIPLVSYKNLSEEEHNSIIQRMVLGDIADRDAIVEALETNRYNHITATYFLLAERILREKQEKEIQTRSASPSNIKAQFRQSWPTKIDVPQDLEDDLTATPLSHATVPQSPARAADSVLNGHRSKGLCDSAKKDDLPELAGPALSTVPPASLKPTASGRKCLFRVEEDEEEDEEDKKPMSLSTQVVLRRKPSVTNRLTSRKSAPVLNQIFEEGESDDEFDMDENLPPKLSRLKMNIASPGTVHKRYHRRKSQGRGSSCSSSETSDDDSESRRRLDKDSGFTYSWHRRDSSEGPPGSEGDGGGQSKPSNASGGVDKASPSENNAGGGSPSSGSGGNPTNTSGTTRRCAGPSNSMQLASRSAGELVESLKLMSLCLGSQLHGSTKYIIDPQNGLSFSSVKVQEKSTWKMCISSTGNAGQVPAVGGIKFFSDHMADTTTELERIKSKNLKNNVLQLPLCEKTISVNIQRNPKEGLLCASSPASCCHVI
Put plainly: Eurofins kinase panel. The settings on record: read-out: Inhibition rate (%).

The next assay addresses T8, STK32B(h) (Homo sapiens, UniProt Q9NY57).
T8 construct: purchased Eurofins (KinaseProfiler)
Nature of the assay: Eurofins kinase panel. The settings on record: read-out: Inhibition rate (%).

The values that follow come from article PMC6704710, “Preclinical evaluation of 3D185, a novel potent inhibitor of FGFR1/2/3 and CSF-1R, in FGFR-dependent and macrophage-dominant cancer models” (Journal of Experimental & Clinical Cancer Research : CR, 2019).

T4 sequence (Q13153 whole entry): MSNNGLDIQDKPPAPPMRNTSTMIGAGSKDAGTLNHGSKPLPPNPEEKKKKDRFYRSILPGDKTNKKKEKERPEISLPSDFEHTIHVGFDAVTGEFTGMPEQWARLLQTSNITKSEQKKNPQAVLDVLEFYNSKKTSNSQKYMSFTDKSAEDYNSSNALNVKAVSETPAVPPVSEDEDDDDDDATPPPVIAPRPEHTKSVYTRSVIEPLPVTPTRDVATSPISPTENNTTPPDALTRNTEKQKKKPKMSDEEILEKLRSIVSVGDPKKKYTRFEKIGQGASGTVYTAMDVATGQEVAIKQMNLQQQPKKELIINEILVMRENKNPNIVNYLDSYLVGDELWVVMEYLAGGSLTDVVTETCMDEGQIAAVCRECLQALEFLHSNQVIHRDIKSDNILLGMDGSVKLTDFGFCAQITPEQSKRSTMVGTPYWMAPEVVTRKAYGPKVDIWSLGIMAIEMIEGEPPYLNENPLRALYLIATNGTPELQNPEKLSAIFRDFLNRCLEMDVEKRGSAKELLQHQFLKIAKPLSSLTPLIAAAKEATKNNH
T2 sequence (Q06187 whole entry R28H): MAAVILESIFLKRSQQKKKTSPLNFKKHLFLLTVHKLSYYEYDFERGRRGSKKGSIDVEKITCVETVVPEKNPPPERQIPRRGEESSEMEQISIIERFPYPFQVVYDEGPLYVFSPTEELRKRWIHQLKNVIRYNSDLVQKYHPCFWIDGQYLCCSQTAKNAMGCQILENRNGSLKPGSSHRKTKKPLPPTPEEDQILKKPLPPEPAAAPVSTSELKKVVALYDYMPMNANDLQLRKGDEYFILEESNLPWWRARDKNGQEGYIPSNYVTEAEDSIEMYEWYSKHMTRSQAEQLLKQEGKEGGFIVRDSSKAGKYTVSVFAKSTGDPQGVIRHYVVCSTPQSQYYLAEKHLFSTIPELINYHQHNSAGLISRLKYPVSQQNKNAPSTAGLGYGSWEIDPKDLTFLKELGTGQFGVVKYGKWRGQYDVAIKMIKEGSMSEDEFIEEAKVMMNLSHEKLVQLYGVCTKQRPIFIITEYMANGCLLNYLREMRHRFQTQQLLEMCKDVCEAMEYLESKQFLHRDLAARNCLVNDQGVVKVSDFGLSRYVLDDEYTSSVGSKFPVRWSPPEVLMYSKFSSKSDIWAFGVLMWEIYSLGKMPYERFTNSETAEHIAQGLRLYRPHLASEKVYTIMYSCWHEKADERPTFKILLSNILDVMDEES
T8 sequence (Q9NY57 whole entry): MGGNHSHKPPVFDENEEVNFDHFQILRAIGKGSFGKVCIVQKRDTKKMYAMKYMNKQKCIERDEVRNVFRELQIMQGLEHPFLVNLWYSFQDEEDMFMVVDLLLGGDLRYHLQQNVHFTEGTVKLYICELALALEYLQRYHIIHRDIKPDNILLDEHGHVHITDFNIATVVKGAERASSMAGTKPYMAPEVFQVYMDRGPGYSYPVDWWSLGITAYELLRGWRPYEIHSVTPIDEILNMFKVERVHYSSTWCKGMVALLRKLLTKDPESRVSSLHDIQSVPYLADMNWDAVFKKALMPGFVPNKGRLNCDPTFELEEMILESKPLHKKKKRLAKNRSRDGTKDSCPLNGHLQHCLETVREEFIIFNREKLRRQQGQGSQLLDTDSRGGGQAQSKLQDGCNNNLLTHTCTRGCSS
T6 sequence (Q16539 whole entry T106M): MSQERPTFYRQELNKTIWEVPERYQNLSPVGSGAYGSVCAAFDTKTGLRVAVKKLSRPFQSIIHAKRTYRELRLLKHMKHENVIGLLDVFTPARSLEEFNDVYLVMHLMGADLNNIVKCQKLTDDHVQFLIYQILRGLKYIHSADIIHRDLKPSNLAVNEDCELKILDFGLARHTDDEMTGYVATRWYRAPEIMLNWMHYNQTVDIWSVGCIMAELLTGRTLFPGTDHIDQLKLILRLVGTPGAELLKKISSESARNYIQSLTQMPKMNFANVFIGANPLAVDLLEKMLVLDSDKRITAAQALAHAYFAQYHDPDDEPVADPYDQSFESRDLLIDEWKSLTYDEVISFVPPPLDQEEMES
T1 sequence (P22607 23-806): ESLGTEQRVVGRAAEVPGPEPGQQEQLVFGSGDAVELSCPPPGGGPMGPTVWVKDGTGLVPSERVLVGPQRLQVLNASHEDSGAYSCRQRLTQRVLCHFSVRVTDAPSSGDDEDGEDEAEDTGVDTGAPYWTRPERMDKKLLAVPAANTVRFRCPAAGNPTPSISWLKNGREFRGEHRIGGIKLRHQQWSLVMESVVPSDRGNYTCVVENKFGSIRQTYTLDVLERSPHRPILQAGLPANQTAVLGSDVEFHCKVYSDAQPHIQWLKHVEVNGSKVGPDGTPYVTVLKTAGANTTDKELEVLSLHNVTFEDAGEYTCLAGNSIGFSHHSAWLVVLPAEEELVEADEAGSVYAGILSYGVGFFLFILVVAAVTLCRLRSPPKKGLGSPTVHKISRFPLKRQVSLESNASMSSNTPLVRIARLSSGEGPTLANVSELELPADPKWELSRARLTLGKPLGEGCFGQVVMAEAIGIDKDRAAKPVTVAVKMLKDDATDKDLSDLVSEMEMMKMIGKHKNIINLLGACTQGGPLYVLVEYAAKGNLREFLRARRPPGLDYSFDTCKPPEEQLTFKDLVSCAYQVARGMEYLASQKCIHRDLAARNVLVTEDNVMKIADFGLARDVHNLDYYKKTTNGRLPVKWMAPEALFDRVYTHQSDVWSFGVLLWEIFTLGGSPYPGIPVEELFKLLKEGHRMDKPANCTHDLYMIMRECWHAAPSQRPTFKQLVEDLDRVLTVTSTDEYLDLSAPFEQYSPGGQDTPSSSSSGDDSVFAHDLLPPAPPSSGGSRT

`COc1cc(OC)c(Cl)c(-c2ccc3c(NC(=O)c4ccc(N5CCNC(C)(C)C5)cc4)n[nH]c3n2)c1Cl` [3D185]: the half-maximal inhibitory concentration (IC50) against FGFR3 is 3.6 nM. The inhibition at 0.01 µM on BTK(R28H)(h) (10 nM) was -3%; at GRK2(h) (10 nM) it was 5%; on PAK1(h) (10 nM) it was 5%; on PKCμ(h) (10 nM), -2%; on SAPK2a(T106M)(h) (10 nM) it was 0%; at SNRK(h) (10 nM), -8%. Besides, the inhibition at 0.01 µM on STK32B(h) (10 nM) came to 1%. For the same compound, the inhibition at 0.1 µM is -2% on BTK(R28H)(h) (100 nM); 1% at GRK2(h) (100 nM); 6% on PAK1(h) (100 nM); 2% on PKCμ(h) (100 nM); 3% on SAPK2a(T106M)(h) (100 nM); -42% at SNRK(h) (100 nM). In addition, the inhibition at 0.1 µM at STK32B(h) (100 nM) is 1%. Moreover, the inhibition at 1 µM on BTK(R28H)(h) (1000 nM) was -4%; on GRK2(h) (1000 nM), -4%; at PAK1(h) (1000 nM), 2%; on PKCμ(h) (1000 nM), 11%; on SAPK2a(T106M)(h) (1000 nM), -3%; on SNRK(h) (1000 nM) it was -44%. Also, the inhibition at 1 µM at STK32B(h) (1000 nM) amounted to 0%.
